In PMC12301304 (Frontiers in Pharmacology, 2025):
Where two headings read alike, the source gives them in different places.

Columns and labels:
CYP2c13 = target: T1, CYP2c13 (Rattus norvegicus, UniProt P20814); experiment: RLM incubation: metabolic clearance rate of mephenytoin (CYP2c13); details: RLM 0.5 mg/mL, 30 min 37°C, inhibitor added, blank control 15.97 ± 0.68, n = 3
T1 sequence (P20814 1-490): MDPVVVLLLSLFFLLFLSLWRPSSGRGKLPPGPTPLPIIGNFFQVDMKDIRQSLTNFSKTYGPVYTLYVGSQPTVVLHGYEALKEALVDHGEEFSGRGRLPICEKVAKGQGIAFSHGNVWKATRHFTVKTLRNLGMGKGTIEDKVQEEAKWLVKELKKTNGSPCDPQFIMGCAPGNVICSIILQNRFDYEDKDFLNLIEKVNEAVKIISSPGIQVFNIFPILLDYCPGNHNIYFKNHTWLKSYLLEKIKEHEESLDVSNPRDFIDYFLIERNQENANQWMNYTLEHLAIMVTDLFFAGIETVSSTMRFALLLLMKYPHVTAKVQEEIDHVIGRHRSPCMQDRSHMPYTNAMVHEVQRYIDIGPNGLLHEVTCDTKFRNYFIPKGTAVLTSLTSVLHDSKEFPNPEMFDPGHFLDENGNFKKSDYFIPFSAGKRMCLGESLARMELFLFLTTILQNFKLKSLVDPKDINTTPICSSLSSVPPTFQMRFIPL
Method: (§1) The effect of the Zhicaowu–Hezi combination on CYP450 enzymes in RLM was evaluated by assessing the metabolic clearance rates of theophylline, metoprolol, bupropion, mephenytoin (CYP2c13), chlorzoxazone, testosterone, and diclofenac.
(§2) On day 15, the rats were humanely euthanized, and liver tissues were excised for microsomal preparation. […] Livers from each group were repeatedly washed with ice-cold phosphate buffered saline (PBS). […] Subsequently, they were blotted dry with filter paper, weighed, and homogenized by adding 4 mL of ice-cold PBS per gram of liver tissue. The mixture was homogenized in an ice bath. The liver homogenate was subjected to centrifugation at 10,000 RPM for 20 min at 4°C. The resulting supernatant was then combined with an ice-cold 88-mmol/L CaCl2 solution at a 1:1 ratio, and the mixture was homogenized in an ice bath for 5 min. The resulting solution was then centrifuged at 25,000 × g for 30 min at 4°C. The supernatant was discarded and the precipitate was repeatedly resuspended in PBS–20% glycerol buffer. The precipitate was then stored in a separate bottle at −80°C for backup. The protein concentration of the prepared RLM was determined using a bicinchoninic acid protein assay kit.
(§3) Preincubation was conducted for 5 min in a water bath at 37°C, after which NADPH (1 mmol/L) was added, and incubation continued for 30 min at 37°C. Once the incubation period elapsed, the reaction was terminated by the addition of an ice-cold IS-containing acetonitrile solution. The samples were vortexed for 2 min and centrifuged at 15,000 RPM for 10 min. The resulting supernatant was filtered through a 0.22-μm organic microporous membrane, and 20 μL of the filtered solution was injected into the HPLC assay. To prevent the organic solvents from inducing or inhibiting the enzyme, the volume fraction of organic solvents in the entire incubation system was maintained at 1%. […] The inhibitor group was added with corresponding inhibitor, while all other procedures remained identical.

CYP2b1 = target: T2, CYP2b1 (Rattus norvegicus, UniProt P00176); experiment: RLM incubation: metabolic clearance rate of bupropion (CYP2b1); details: RLM 0.5 mg/mL, 30 min 37°C, inhibitor added, blank control 7.92 ± 0.60, n = 3
T2 sequence (P00176 1-491): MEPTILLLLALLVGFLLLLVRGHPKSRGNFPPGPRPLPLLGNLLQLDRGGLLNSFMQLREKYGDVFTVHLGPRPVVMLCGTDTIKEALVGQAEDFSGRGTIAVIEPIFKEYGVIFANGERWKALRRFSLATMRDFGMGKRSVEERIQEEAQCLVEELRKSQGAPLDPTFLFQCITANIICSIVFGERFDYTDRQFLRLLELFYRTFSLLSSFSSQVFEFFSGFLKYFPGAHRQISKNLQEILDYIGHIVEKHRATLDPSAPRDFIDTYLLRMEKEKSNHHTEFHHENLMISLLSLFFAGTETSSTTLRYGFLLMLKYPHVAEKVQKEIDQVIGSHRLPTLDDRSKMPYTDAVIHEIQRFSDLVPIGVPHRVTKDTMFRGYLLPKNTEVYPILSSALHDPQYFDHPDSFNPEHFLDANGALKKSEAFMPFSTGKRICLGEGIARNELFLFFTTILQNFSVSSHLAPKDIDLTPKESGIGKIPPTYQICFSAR
Method: as §1, §2, §3

CYP1a2 = target: T3, CYP1a2 (Rattus norvegicus, UniProt P04799); details: microsomes
T3 sequence (P04799 1-513): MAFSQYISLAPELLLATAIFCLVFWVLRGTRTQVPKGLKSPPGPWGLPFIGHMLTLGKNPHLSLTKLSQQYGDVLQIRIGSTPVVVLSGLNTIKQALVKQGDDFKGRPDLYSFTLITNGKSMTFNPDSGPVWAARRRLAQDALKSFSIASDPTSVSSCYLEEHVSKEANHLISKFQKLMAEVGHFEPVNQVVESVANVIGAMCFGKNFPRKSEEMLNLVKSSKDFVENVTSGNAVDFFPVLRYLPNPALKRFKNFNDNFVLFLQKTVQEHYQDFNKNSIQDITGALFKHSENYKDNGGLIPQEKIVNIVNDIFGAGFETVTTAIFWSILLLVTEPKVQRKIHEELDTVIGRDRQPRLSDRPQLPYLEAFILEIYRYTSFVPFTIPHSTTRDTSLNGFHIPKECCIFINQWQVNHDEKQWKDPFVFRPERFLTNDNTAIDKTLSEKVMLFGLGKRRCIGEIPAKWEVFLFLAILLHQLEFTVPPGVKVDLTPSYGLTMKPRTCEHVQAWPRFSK
Method: as §1, §2, §3

CYP2c11 = target: T4, CYP2c11 (Rattus norvegicus, UniProt P08683)
T4 sequence (P08683 1-500): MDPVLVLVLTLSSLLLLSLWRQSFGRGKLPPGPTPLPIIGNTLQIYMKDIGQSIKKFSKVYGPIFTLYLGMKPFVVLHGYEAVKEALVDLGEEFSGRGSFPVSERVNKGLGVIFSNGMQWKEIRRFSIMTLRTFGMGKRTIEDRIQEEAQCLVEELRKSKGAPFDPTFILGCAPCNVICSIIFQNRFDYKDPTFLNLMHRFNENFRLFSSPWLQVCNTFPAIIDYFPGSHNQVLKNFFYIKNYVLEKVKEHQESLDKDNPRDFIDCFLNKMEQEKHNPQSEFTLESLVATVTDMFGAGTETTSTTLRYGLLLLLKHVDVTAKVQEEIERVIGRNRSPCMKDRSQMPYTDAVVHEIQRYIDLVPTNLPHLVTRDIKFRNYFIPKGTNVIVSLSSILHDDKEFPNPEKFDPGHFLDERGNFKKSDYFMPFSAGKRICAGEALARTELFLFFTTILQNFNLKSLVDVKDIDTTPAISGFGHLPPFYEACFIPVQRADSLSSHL
Method: as §1, §2, §3

SMILES	CYP2c13(%) metabolic clearance rate of probe drug (CYP2c13) [%]	CYP2b1(%) metabolic clearance rate of probe drug (CYP2b1) [%]	CYP1a2 (%) metabolic clearance rate of probe drug (CYP1a2) [%]	CYP2c11(%) metabolic clearance rate of probe drug (CYP2c11) [%]	CYP2c11(%) metabolic clearance rate of probe drug (CYP2c11; RLM 0.5 mg/mL, 30 min 37°C, inhibitor added, probe diclofenac, blank control 21.12 ± 3.80, n = 3) [%]
S=P(N1CC1)(N1CC1)N1CC1 [Thiotepa]	14.43 ± 0.36	2.24 ± 0.16	35.91 ± 1.40	21.84 ± 2.64	–
O=c1cc(-c2ccccc2)oc2c1ccc1ccccc12 [α-naphthoflavone]	16.65 ± 3.04	8.00 ± 0.97	28.92 ± 1.91	–	23.02 ± 0.55
